The text below walks through data of article PMC4424558, “Antimicrobial and antioxidant flavonoids from the leaves of Oncoba spinosa Forssk. (Salicaceae)” (BMC Complementary and Alternative Medicine, 2015).

≈ marks a conversion by molar mass, not a printed value.

The test system of assay [1] is Candida albicans ATCC 9002. In words: Broth microdilution MIC/MFC against Candida albicans ATCC 9002. The format is cell-based. The conditions noted are these: ATCC9002, 37°C, 48 h, read-out: MIC. The protocol:
(§1) The studied microorganisms were both reference (from the American Type Culture Collection) and clinical (from Pasteur Institute Paris, France) strains of Enterobacter aerogenes, Escherichia coli, Klebsiella pneumoniae, Candida albicans, and Cryptococcus neoformans. Also, included were two clinical isolates of Candida parapsilosis and Staphylococcus aureus collected from Pasteur Centre (Yaoundé-Cameroon). The bacterial and fungal species were grown at 37°C and maintained on nutrient agar (NA, Conda, Madrid, Spain) and Sabouraud Dextrose Agar (SDA, Conda) slants respectively.
(§2) The inocula of yeasts and bacteria were prepared from overnight cultures by picking numerous colonies and suspending them in sterile saline (NaCl) solution (0.90%). Absorbance was read at 530 nm for yeasts or at 600 nm for bacteria and adjusted with the saline solution to match that of a 0.50 McFarland standard solution. From the prepared microbial solutions, other dilutions with saline solution were prepared to give a final concentration of 10^6 yeast cells/ml and 10^6 CFU/ml for bacteria.
(§3) The antimicrobial activity was investigated by determining the minimum inhibitory concentrations (MICs), minimum bactericidal concentrations (MBCs) and minimum fungicidal concentrations (MFCs).
(§4) MICs were determined by broth micro dilution. Stock solutions of the tested samples were prepared in 10% v/v aqueous dimethylsulfoxide (DMSO) solution (Fisher chemicals, Strasbourg, France) at concentration of 4096 μg/ml. This was two-fold serially diluted in Mueller-Hinton Broth (MHB) for bacteria and Sabouraud Dextrose Broth (SDB) for fungi to obtain a concentration range of 2048 to 0.25 μg/ml. For every experiment, a sterility check (10% aqueous DMSO and medium), negative control (10% aqueous DMSO, medium and inoculum) and positive control (10% aqueous DMSO, medium, inoculum and water-soluble antibiotics) were included. One hundred microliters of each concentration was introduced into a well (96-wells microplate) containing 90 μl of SDB or MHB and 10 μl of inoculum was added to obtain a final concentration range of 4096 to 0.125 μg/ml. The plates were covered with a sterile lid, and incubated on the shaker at 37°C for 24 h (bacteria) and 48 h (yeasts). MICs were assessed visually after the corresponding incubation period and were taken as the lowest sample concentration at which there was no growth or virtually no growth. The assay was repeated thrice.
(§5) The lowest concentration that yielded no growth after the sub-culturing was taken as the MBCs or MFCs. Chloramphenicol (Sigma-Aldrich, Steinheim, Germany) for bacteria and nystatin (Sigma-Aldrich, Steinheim, Germany) for yeasts were used as positive controls.

A short description of assay [2]: DPPH free radical scavenging assay. It is filed as biochemical. The note with it: 30 min, room temperature, 517 nm. The protocol: The free radical scavenging activity of the MeOH extract as well as some of its isolated compounds was evaluated according to described methods with slight modifications. Briefly, the test samples, prior dissolved in DMSO (SIGMA) beforehand, were mixed with a 20 mg/l 2,2-diphenyl-1-picryl-hydrazyl (DPPH) methanol solution, to give final concentrations of 10, 50, 100, 500 and 1000 μg/ml. After 30 min at room temperature, the absorbance values were measured at 517 nm and converted into percentage of antioxidant activity. L-ascorbic acid was used as a standard control. The percentage of decolouration of DPPH (%) was calculated as follows: %decolourationofDPPH=Absorbanceofcontrol−Absorbanceoftestsample)×100/Absorbanceofcontrol
The percentage of decolouration of DPPH (%) was plotted against the test sample. Also, the percentage of decolouration of DPPH was converted in probits. The probit values were plotted against the logarithmic values of concentrations of the test samples and a linear regression curve was established in order to calculate the EC50 (μg/ml), which is the amount of sample necessary to decrease by 50% the absorbance of DPPH [11]. All the analyses were carried out in triplicate.

Assay [3] deals with Cryptococcus neoformans IP 90526. Briefly: Broth microdilution MIC/MFC against Cryptococcus neoformans IP 90526. It is filed as cell-based. The conditions noted are these: IP90526, 37°C, 48 h, read-out: MIC. The method, then: as §1, §2, §3, §4, §5
In assay [4] the test system is Klebsiella pneumoniae ATCC11296. In words: Broth microdilution MIC/MBC against Klebsiella pneumoniae ATCC11296. The format is cell-based. The protocol:
as §1, §2, §3, §4, §5

Assay [5] relates to Escherichia coli ATCC8739. Briefly: Broth microdilution MIC/MBC against Escherichia coli ATCC8739. The format is cell-based. The method, then:
as §1, §2, §3, §4, §5

Assay [6] can be described thus: Trolox equivalent antioxidant capacity (TEAC) assay. The format is biochemical. The note with it: ABTS/laccase, 420 nm, 230 s; 20 μg/ml isolated compounds, 10-400 μg/ml MeOH extract; gallic acid equivalents. The protocol: The TEAC test was done as previously described with slight modifications. In a quartz cuvette, to 950 μl acetate buffer (pH = 5.0, 100 mM), the following were added: 20 μl laccase (1 mM stock solution), 20 μl test sample, 10 μl ABTS (2,2′-azinobis(3-ethylbenzothiazoline-6-sulfonic acid)) (74 mM stock solution). The laccase were purified from Sclerotinia sclerotiorum according to the protocol described. The sample concentrations in the assay mixture were 400, 200, 100, 10 μg/ml for the MeOH extract and 20 μg/ml for the isolated compounds. The content of the generated ABTS^●+ radical was measured at 420 nm after 230 s reaction time and was converted to gallic acid equivalents by the use of a calibration curve (Pearson’s correlation coefficient: r = 0.998) constructed with 0, 4, 10, 14, 28, 56, 84 μM gallic acid standards rather than Trolox. Experiments were done in triplicate.

For assay [7], the system named is bacterial and fungal species. In words: Broth microdilution, all studied microorganisms (panel summary). It is filed as cell-based. The conditions noted are these: out of 7 studied microorganisms. The method, then:
as §1, §2, §3, §4, §5

The test system of another assay is bacteria. In words: Broth microdilution, bacterial strains (panel summary). The format is cell-based. The conditions noted are these: range over the bacterial strains. The protocol:
as §1
The inocula of yeasts and bacteria were prepared from overnight cultures by picking numerous colonies and suspending them in sterile saline (NaCl) solution (0.90%). Absorbance was read at 530 nm for yeasts or at 600 nm for bacteria and adjusted with the saline solution to match that of a 0.50 McFarland standard solution. From the prepared microbial solutions, other dilutions with saline solution were prepared to give a final concentration of 10^6 yeast cells/ml and 10^6 CFU/ml for bacteria. […]
MICs were determined by broth micro dilution. […] MICs were assessed visually after the corresponding incubation period and were taken as the lowest sample concentration at which there was no growth or virtually no growth. […]

Another assay relates to Candida parapsilosis. In words: Broth microdilution MIC/MFC against Candida parapsilosis. The conditions noted are these: Lodderomyces parapsilosis; Candida parapsilosis clinical isolate; 37°C, 48 h; read-out: MIC. The format is cell-based. The method, then: as §1, §2, §3, §4, §5
A further assay has as its system Staphylococcus aureus. In words: Broth microdilution MIC/MBC against Staphylococcus aureus. The conditions noted are these: Staphylococcus aureus clinical isolate. The format is cell-based. The protocol:
as §1, §2, §3, §4, §5

The subject of assay [8] is Enterobacter aerogenes ATCC13048. In words: Broth microdilution MIC/MBC against Enterobacter aerogenes ATCC13048. It is filed as cell-based. The protocol: as §1, §2, §3, §4, §5
A further assay relates to fungi. Briefly: Broth microdilution, fungal strains (panel summary). The note with it: fungal strains. The format is cell-based. The protocol: as §1, §2, §3
as §4, with “One hundred microliters of each concentration was introduced into a well (96-wells microplate) containing 90 μl of SDB or MHB and 10 μl of inoculum was added to obtain a final concentration range of 4096 to 0.125 μg/ml. The plates were covered with a sterile lid, and incubated on the shaker at 37°C for 24 h (bacteria) and 48 h (yeasts).” left out, “The assay was repeated thrice.” left out

In the case of `C[C@@H]1O[C@@H](OC[C@H]2O[C@@H](Oc3c(-c4ccc(O)c(O)c4)oc4cc(O)cc(O)c4c3=O)[C@H](O)[C@@H](O)[C@@H]2O)[C@H](O)[C@H](O)[C@H]1O` [Compound 5, quercetin 3-O-α-L-rhamnopyranosyl (1 → 6) β-D-glucopyranoside], the MIC in [1] was greater than 256 µg/mL; in [3], greater than 256 µg/mL; in assay [4] (37°C, 24 h) it was 8 µg/mL (≈ 13.1 µM); in assay [5] (37°C, 24 h), 64 µg/mL (≈ 105 µM); in the assay with Candida parapsilosis, greater than 256 µg/mL; in the assay on Staphylococcus aureus (37°C, 24 h), 64 µg/mL (≈ 105 µM). Moreover, the MIC in [8] (Klebsiella aerogenes, 37°C, 24 h) was 32 µg/mL (≈ 52.4 µM). In assay [2], the “EC50, concentration scavenging 50% of DPPH radical” value stood at 9.63 µg/mL. Moreover, the minimal bactericidal concentration (MBC) in assay [4] is 16 µg/mL (≈ 26.2 µM); in [5] it was 64 µg/mL (≈ 105 µM); against Staphylococcus aureus, 128 µg/mL (≈ 210 µM); in [8] (Klebsiella aerogenes), 32 µg/mL (≈ 52.4 µM). Further, the MBC/MIC in [4] is given as 2; in assay [5] it was 1; in the assay on Staphylococcus aureus it was 2; in assay [8], 1. Also, the “Gallic acid equivalent antioxidant capacity (TEAC)” value in [6] was 78.35 µg/mL. In addition, in [7], the “studied microorganisms on which inhibitory effects were noted” value is 4/7. Moreover, the “MIC (range over bacteria)” value in the assay with bacteria lay within 8 to 64 µg/mL. The “activity against fungal/yeast strains (in words)” value in the assay on fungi was “inactive”.
